Structures can show the parent of a compound that is named as a salt. Where two headings read alike, the source gives them in different places.
Tests used:
[1] = biological target: T1, human dopamine D3 receptors (Homo sapiens, UniProt P35462); assay: Dopamine D3 receptor binding, [125I]-iodosulpride displacement; settings: for Ki: membranes of HEK-293 cells, 0.1 nM [125I]-iodosulpride, 25° C., 60 minutes; for Ki(D2)/Ki(D3): selectivity ratio of receptor binding constants
T1 construct: expressed in transfected cells; host or cells: HEK-293
Experimental: (§1) The substance to be tested was either dissolved in methanol/Chremophor® (BASF-AG) or in dimethyl sulfoxide and then diluted with water to the desired concentration.
(§2) Each assay mixture was run in triplicate.
The incubation buffer contained 50 mM tris, 120 mM NaCl, 5 mM KCl, 2 mM CaCl2, 2 mM MgCl2 and 0.1% bovine serum albumin, 10 μM quinolone and 0.1% ascorbic acid (prepared fresh daily). The buffer was adjusted to pH 7.4 with HCl.
(§3) After having been incubated at 25° C. for 60 minutes, the assay mixtures were filtered through a Whatman GF/B glass fiber filter under vacuum using a cell collecting device. The filters were transferred to scintillation viols using a filter transfer system. After 4 ml of Ultima Gold® (Packard) have been added, the samples were shaken for one hour and the radioactivity was then counted in a Beta-Counter (Packard, Tricarb 2000 or 2200CA). The cpm values were converted into dpm using a standard quench series and the program belonging to the instrument.
(§4) The inhibition curves were analyzed by means of iterative nonlinear regression analysis using the Statistical Analysis System (SAS) which is similar to the “LIGAND” program described by Munson and Rodbard.

[2] = biological target: T2, human dopamine D2L receptors (long isoform) (Homo sapiens, UniProt P14416); assay: Dopamine D2L receptor binding, [125I] iodospiperone displacement
T2 construct: expressed in transfected cells; host or cells: HEK-293
Experimental: as §1, §2
The incubation buffer contained 50 mM tris, 120 mM NaCl, 5 mM KCl, 2 mM CaCl2, 2 mM MgCl2 and 0.1% bovine serum albumin. The buffer was adjusted to pH 7.4 with HCl.
as §3, §4

[3] = membranes of HEK-293 cells, 0.01 nM [125I] iodospiperone, 25° C., 60 minutes, read-out: Ki(D2)

T2 sequence (P14416 whole entry, canonical isoform): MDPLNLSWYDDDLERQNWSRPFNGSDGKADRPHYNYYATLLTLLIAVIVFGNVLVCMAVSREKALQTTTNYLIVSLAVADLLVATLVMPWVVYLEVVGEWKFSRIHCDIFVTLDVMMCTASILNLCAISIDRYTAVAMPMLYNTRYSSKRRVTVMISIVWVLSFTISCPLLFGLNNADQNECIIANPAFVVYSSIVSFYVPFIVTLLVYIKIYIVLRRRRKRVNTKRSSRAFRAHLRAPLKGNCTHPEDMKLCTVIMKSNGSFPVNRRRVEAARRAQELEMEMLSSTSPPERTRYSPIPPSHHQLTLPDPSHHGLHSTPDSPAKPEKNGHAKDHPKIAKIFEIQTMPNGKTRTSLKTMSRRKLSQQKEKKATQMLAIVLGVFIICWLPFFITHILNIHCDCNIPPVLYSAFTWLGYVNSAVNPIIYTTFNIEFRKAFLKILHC
T1 sequence (P35462 whole entry): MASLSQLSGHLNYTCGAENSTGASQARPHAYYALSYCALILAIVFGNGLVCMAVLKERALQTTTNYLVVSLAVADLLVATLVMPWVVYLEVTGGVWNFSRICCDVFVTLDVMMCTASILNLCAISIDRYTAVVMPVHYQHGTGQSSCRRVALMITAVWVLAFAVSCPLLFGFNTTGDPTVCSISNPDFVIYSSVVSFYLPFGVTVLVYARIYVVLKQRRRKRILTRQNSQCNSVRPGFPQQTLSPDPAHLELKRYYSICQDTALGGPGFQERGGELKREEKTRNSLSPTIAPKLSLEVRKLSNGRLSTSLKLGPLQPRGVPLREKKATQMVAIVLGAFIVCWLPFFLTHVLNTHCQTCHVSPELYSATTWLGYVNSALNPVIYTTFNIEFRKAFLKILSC

Ki [1] [nM] | Ki(D2)/Ki(D3) [1] | Ki [2, 3] [nM] | Compound | Ki [2] [nM]
1.2 | 93 | 112 | CC(C)(C)c1nc(C2CCC2)cc(N2CCN(CCCOc3ccnc(O)n3)CC2)n1 [Example 24, 4-{3-[4-(2-tert-Butyl-6-cyclobutyl-pyrimidin-4-yl)-piperazin-1-yl]-propoxy}-pyrimidin-2-ol] | 
0.96 | 106 | 102 | Cl.Cn1cccc1-c1nnc(SCCCN2CCN(c3cc(C4CCC4)nc(C(C)(C)C)n3)CC2)n1C [Example 66, 2-tert-Butyl-4-cyclobutyl-6-(4-{3-[4-methyl-5-(1-methyl-1H-pyrrol-2-yl)-4H-[1,2,4]triazol-3-ylsulfanyl]-propyl}-piperazin-1-yl)-pyrimidine hydrochloride] | 
1.9 | 253 | 484 | Cl.Cn1c(SCCCN2CCN(c3cc(C4CC4)nc(C(C)(C)C)n3)CC2)nnc1C(F)(F)F [Example 47, 2-tert-Butyl-4-{4-[3-(4-methyl-5-trifluoromethyl-4H-[1,2,4]triazol-3-ylsulfanyl)-propyl]-piperazin-1-yl}-6-cyclopropyl-pyrimidine hydrochloride] | 
2 | 203 | 405 | Cn1c(SCCCN2CCN(c3cc(C4CCC4)nc(C(C)(C)C)n3)CC2)nnc1C(F)(F)F [Example 42, 2-tert-Butyl-4-{4-[3-(4-methyl-5-trifluoromethyl-4H-[1,2,4]triazol-3-ylsulfanyl)-propyl]-piperazin-1-yl}-6-cyclobutyl-pyrimidine] | 
7.1 | 51 | 359 | CC(C)(C)c1nc(C2CC2)cc(N2CCN(CCCOc3nccc(O)n3)CC2)n1 [Example 37, 2-{3-[4-(2-tert-Butyl-6-cyclopropyl-pyrimidin-4-yl)-piperazin-1-yl]-propoxy}-pyrimidin-4-ol] | 
1.1 | 71 | 77 | CC(C)(C)c1nc(C2CCC2)cc(N2CCN(CCCCc3nccc(O)n3)CC2)n1 [Example 34, 2-{4-[4-(2-tert-Butyl-6-cyclobutyl-pyrimidin-4-yl)-piperazin-1-yl]-butyl}-pyrimidin-4-ol] | 
22.1 | 36 | 797 | Cn1cnnc1SCCCN1CCN(c2cc(C(F)(F)F)nc(C3(C)CC3)n2)CC1 [Example 65, 2-(1-Methyl-cyclopropyl)-4-{4-[3-(4-methyl-4H-[1,2,4]triazol-3-ylsulfanyl)-propyl]-piperazin-1-yl}-6-trifluoromethyl-pyrimidine] | 
11.2 | 82 | 926 | C[C@@H](COc1nccc(O)n1)CN1CCN(c2cc(C3CCC3)nc(C(C)(C)C)n2)CC1 [Example 52] | 
2 | 72 | 143 | C[C@@H](COc1ccnc(O)n1)CN1CCN(c2cc(C3CCC3)nc(C(C)(C)C)n2)CC1 [Example 31, (R)-4-{3-[4-(2-tert-Butyl-6-cyclobutyl-pyrimidin-4-yl)-piperazin-1-yl]-2-methyl-propoxy}-pyrimidin-2-ol] | 
0.64 | 124 | 80 | Cc1nnc(SCCCN2CCN(c3cc(C4(C)CC4)nc(C(C)(C)C)n3)CC2)n1C [Example 54, 2-tert-butyl-4-{4-[3-(4-methyl-5-methyl-4H-[1,2,4]triazol-3-ylsulfanyl)-propyl]piperazin-1-yl}-6-(1-methyl)cyclopropyl-pyrimidine] | 
0.9 | 150 | 137 | CC(C)(C)c1nc(C2CCC2)cc(N2CCN(CCCCNC(=O)c3ccncc3)CC2)n1.Cl [Example 11, N-{4-[4-(2-tert-Butyl-6-cyclobutyl-pyrimidin-4-yl)-piperazin-1-yl]-butyl}-isonicotinamide hydrochloride] | 
1.2 | 50 | 58 | Cn1cnnc1SCCCN1CCN(c2cc(C3(C)CC3)nc(C(C)(C)C)n2)CC1 [Example 53, 2-tert-butyl-4-{4-[3-(4-methyl-4H-[1,2,4]triazol-3-ylsulfanyl)-propyl]-piperazin-1-yl}-6-(1-methyl)cyclopropyl-pyrimidine] | 
1.4 | 96 | 135 | Cc1nnc(SCCCN2CCN(c3cc(C4CCC4)nc(C(C)(C)C)n3)CC2)s1.Cl [Example 2, 2-tert-Butyl-4-cyclobutyl-6-{4-[3-(5-methyl-[1,3,4]thiadiazol-2-ylsulfanyl)-propyl]-piperazin-1-yl}-pyrimidine hydrochloride] | 
0.47 | 109 | 51.2 | Cn1c(SCCCN2CCN(c3cc(C4CC4)nc(C(C)(C)C)n3)CC2)nnc1-c1cnccn1 [Example 56, 2-tert-butyl-4-{4-[3-(5-pyrazin-4-methyl-4H-[1,2,4]triazol-3-ylsulfanyl)-propyl]-piperazin-1-yl}6-cyclopropyl-pyrimidine hydrochloride] | 
0.9 | 127 | 113 | CC(C)(C)c1nc(C2CCC2)cc(N2CCN(CCCSc3ncccn3)CC2)n1.Cl [Example 4, 2-tert-Butyl-4-cyclobutyl-6-{4-[3-(pyrimidin-2-ylsulfanyl)-propyl]-piperazin-1-yl}-pyrimidine hydrochloride] | 
2.1 | 107 | 222 | CC(C)(C)c1nc(C2CCC2)cc(N2CCN(CCCOc3ncccn3)CC2)n1.Cl [Example 27, 2-tert-Butyl-4-cyclobutyl-6-{4-[3-(pyrimidin-2-yloxy)-propyl]-piperazin-1-yl}-pyrimidine hydrochloride] | 
3.8 | 78 | 296 | C[C@@H](COc1ncccn1)CN1CCN(c2cc(C3CCC3)nc(C(C)(C)C)n2)CC1.Cl [Example 28, (R)-2-tert-Butyl-4-cyclobutyl-6-{4-[2-methyl-3-(pyrimidin-2-yloxy)-propyl]-piperazin-1-yl}-pyrimidine hydrochloride] | 
3.8 | 154 | 587 | Cl.Cn1nnnc1SCCCN1CCN(c2cc(C3CC3)nc(C(C)(C)C)n2)CC1 [Example 35, 2-tert-Butyl-4-cyclopropyl-6-{4-[3-(1-methyl-1H-tetrazol-5-ylsulfanyl)-propyl]-piperazin-1-yl}-pyrimidine hydrochloride] | 
4.8 | 70 | 337 | CC(C)(C)c1nc(C2CCC2)cc(N2CCN(CCCOc3nccc(O)n3)CC2)n1 [Example 26, 2-{3-[4-(2-tert-Butyl-6-cyclobutyl-pyrimidin-4-yl)-piperazin-1-yl]-propoxy}-pyrimidin-4-ol] | 
1 | 121 | 115 | CC(C)(C)c1nc(C2CCC2)cc(N2CCN(CCCCNC(=O)c3cccnc3)CC2)n1 [Example 12, N-{4-[4-(2-tert-Butyl-6-cyclobutyl-pyrimidin-4-yl)-piperazin-1-yl]-butyl}-nicotinamide] | 
1.2 | 234 | 272 | Cc1nnc(SCCCN2CCN(c3cc(C4CC4)nc(C(C)(C)C)n3)CC2)n1C.Cl [Example 45, 2-tert-Butyl-4-{4-[3-(4-methyl-5-methyl-4H-[1,2,4]triazol-3-ylsulfanyl)-propyl]-piperazin-1-yl}-6-cyclopropyl-pyrimidine hydrochloride] | 
0.5 | 163 | 87 | CC(C)(C)c1nc(C2CCC2)cc(N2CCN(CCCCNC(=O)c3ccc(F)cc3)CC2)n1.Cl [Example 10, N-{4-[4-(2-tert-Butyl-6-cyclobutyl-pyrimidin-4-yl)-piperazin-1-yl]-butyl}-4-fluoro-benzamide hydrochloride] | 

Compound | Ki [1] [nM] | Ki(D2)/Ki(D3) [1] | Ki [2, 3] [nM] | Ki [2] [nM]
Cn1c(SCCCN2CCN(c3cc(C4CCC4)nc(C(C)(C)C)n3)CC2)nnc1C1CC1.O=C(O)/C=C/C(=O)O [Example 44, 2-tert-Butyl-4-{4-[3-(4-methyl-5-cyclopropyl-4H-[1,2,4]triazol-3-ylsulfanyl)-propyl]-piperazin-1-yl}-6-cyclobutyl-pyrimidine fumarate] | 0.6 | 250 | 142 | 
Cc1nnc(SCCCN2CCN(c3cc(C4CCC4)nc(C(C)(C)C)n3)CC2)n1C.O=C(O)/C=C/C(=O)O [Example 43, 2-tert-Butyl-4-{4-[3-(4-methyl-5-methyl-4H-[1,2,4]triazol-3-ylsulfanyl)-propyl]-piperazin-1-yl}-6-cyclobutyl-pyrimidine fumarate] | 1.5 | 210 | 305 | 
CC(C)(C)c1nc(C2CCC2)cc(N2CCN(CCCSc3nncs3)CC2)n1 [Example 1, 2-tert-Butyl-4-cyclobutyl-6-{4-[3-([1,3,4]thiadiazol-2-ylsulfanyl)-pronyl]-piperazin-1-yl}-pyrimidine] | 0.9 | 54 |  | 49
2-tert-Butyl-4-cyclobutyl-6-{4-[3-(1-methyl-1H-tetrazol-5-ylsulfanyl)-propyl]-piperazin-1-yl}-pyrimidine [Example 9] | 4.1 | 106 | 432 | 
